Laboratory results published in patent publication US12691101B2, “Compound and method for preventing or treating of respiratory diseases comprising the same as an active ingredient” (YONSEI UNIVERSITY, UNIVERSITY - INDUSTRY FOUNDATION (UIF), priority 2019, dated 2026).

Tests used:
[1] = biological target: T1, human wild-type (WT)-pendrin (Homo sapiens, UniProt O43511); assay: Pendrin-mediated Cl^−/I^− exchange activity, YFP fluorescence in CHO-K1 cells; format: cell-based; conditions: for inhibition at 30 µM: CHO-K1, 30 μM, read-out: Pendrin inhibitory activity at 30 μM (%); for IC50: compounds showing pendrin inhibitory activity of 50% or more at 30 μM, read-out: IC50
T1 construct: expressed in transfected cells
T1 sequence (O43511 1-780): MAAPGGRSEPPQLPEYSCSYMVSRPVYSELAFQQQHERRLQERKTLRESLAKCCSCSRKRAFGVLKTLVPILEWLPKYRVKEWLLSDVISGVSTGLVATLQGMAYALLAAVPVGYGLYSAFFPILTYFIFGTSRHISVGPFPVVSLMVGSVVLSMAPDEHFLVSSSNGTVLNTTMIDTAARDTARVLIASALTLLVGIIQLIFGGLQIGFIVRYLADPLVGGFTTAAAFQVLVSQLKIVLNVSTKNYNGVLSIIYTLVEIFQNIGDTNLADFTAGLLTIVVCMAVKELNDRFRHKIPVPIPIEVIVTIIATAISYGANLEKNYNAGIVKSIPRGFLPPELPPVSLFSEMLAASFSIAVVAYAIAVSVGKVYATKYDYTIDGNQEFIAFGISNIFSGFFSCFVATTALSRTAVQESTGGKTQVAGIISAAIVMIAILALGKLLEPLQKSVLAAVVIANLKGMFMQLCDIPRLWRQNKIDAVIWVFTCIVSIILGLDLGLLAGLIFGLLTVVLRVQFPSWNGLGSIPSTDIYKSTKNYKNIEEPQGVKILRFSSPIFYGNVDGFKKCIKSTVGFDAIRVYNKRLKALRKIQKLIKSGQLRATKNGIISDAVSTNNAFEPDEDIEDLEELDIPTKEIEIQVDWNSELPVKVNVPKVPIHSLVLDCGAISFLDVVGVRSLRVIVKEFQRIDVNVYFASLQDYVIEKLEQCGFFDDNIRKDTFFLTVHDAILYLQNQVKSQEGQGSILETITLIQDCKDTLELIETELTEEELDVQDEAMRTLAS

HBE cells = conditions: IL-13-treated HBE cells; cited from earlier work

Structure (SMILES) | inhibition at 30 µM [1] [%] | also measured
CCCc1ccc(C(=O)NC(=Cc2cccs2)C(=O)O)cc1 [G30, 2-(4-Propylbenzamido)-3-(thiophen-2-yl)acrylate] | 29.7 | –
Cc1ncsc1C=C(NC(=O)c1ccc(C(C)(C)C)cc1)C(=O)O [G32, 2-(4-(tert-butyl)benzamido)-3-(4-methylthiazol-5-yl)acrylate] | – | Pendrin inhibitory activity at 30 μM (%) ([1]; 30 μM): 2.1%
CC(C)(C)c1ccc(C(=O)NC(=Cc2cc3ccccc3[nH]2)C(=O)O)cc1 [G33, 2-(4-(tert-butyl)benzamido)-3-(1H-indol-2-yl)acrylate] | 5.4 | –
CCCc1ccc(C(=O)NC(=Cc2ccco2)C(=O)O)cc1 [G34, 3-(Furan-2-yl)-2-(4-propylbenzamido)acrylate] | 38.2 | –
CCCCCc1ccc(C(=O)NC(=Cc2ccco2)C(=O)O)cc1 [G35, 3-(Furan-2-yl)-2-(4-pentylbenzamido)acrylate] | 94 | IC50 [1]: 6.1 ± 0.88 µM
CCCCOc1ccc(C(=O)NC(=Cc2cccs2)C(=O)O)cc1 [G36, 2-(4-Butoxybenzamido)-3-(thiophen-2-yl)acrylate] | 4.8 | –
CCCCCCc1ccc(C(=O)NC(=Cc2cccs2)C(=O)O)cc1 [G37, 2-(4-Hexylbenzamido)-3-(thiophen-2-yl)acrylate] | 97.9 | IC50 [1]: 8.2 ± 0.79 µM
O=C(O)C(=Cc1cccs1)NC(=O)c1ccc2c(c1)CCC2 [G38, 2-(2,3-Dihydro-1H-indene-5-carboxamido)-3-(thiophen-2-yl)acrylate] | 2.5 | –
O=C(O)C(=Cc1cccs1)NC(=O)c1ccc(OC(F)F)cc1 [G39, 2-(4-(Difluoromethoxy)benzamido)-3-(thiophen-2-yl)acrylate] | 3.2 | –
CCCCCc1ccc(C(=O)NC(=Cc2cccs2)C(=O)O)cc1 [G40, 2-(4-Pentylbenzamido)-3-(thiophen-2-yl)acrylate] | 88.6 | IC50 [1]: 13.4 ± 1.69 µM
CCCCOc1ccc(C(=O)NC(=Cc2ccc[nH]2)C(=O)O)cc1 [G41, 2-(4-Butoxybenzamido)-3-(1H-pyrrol-2-yl)acrylate] | 25.1 | –
Cc1cc(C)cc(C(=O)NC(=Cc2cccs2)C(=O)O)c1 [G42, 2-(3,5-Dimethylbenzamido)-3-(thiophen-2-yl)acrylate] | 2.7 | –
Cn1nc(COc2cccc(F)c2)c2c1CCN(C(=O)Nc1ccc(Cl)cc1)C2 [PDSinh-A01] | – | ASL depth (HBE cells): significantly increased
